Results on seven compounds are retold here after patent US8039430B2 (University of Wollongong, priority 2005, dated 2011).

Usually melting point stands for the temperature of the solid-liquid transition.

For one data set, the system named is E.f243. As to the kind of experiment: Antibacterial screening (MIC) of compounds of Example 2, E.f243. The data set is classed as cell-based, Enterococcus faecium. How it is done: (§1) • All assays used the Staphylococcus aureus strain ATCC 6538P. • Assays described in Chapter 5 additionally used the vancomycin-resistant enterococci and vancomycin-sensitive enterococci strains Ef243, Ef449, Ef820 and Ef487. Culture Media • Mueller-Hinton Broth Medium (MHB): MHB (Oxoid CM405) was prepared with final concentrations of […] MgCl2 and 2 μg/mL CaCl2. Culture medium was pre-warmed for approximately 2-3 h at 37° C. before use. • Mueller-Hinton Agar Medium (MHA): MMB containing 1.5% Agar (Merck Agar 1.01614). Maintenance of Bacteria • From a thawed cryovial, the bacteria was streaked onto MHA and the plate incubated overnight at 37° C. • From this plate, 10 cryovials were prepared by looping several colonies into 0.5 mL of 20% glycerol solution. The cryovials were immediately stored at −140° C. Preparation of Seed Cultures • A cryovial was removed from −140° C. storage and thawed at room temperature. • An MHA plate was streaked with a loopful of bacterial suspension and incubated overnight at 37° C. to create a parent plate (P1). • A daughter plate (D1) was streaked from the parent plate and incubated overnight at 37° C. […] The second parent plate (P2) was used to generate two additional daughter plates using the procedure outlined above before being discarded. • Cryovials were used twice to prepare parent plates (P1 and P2) before being discarded. […] A vancomycin control set (triplicate) and a compound negative control set (triplicate) were also included on each plate (FIG. 1). • The inoculated culture medium was incubated at 37° C. for 30 min, with shaking at 130 rpm. • Using a multichannel pipette, the contents of the first row were mixed before 50 μL was transferred to the second row. The pipette tips were changed and the process repeated by 50 μL of the mixed broth solutions in the second row being transferred to the third row. This process was repeated until the last row contained either the diluted test compound or a control (vancomycin or compound-negative). […] Antibacterial Testing of Compounds of Example 2 Introduction
(§2) The specific testing procedures and protocols are outlined in the section “Antibacterial Screening Methodology for the Compounds of Example 2”.
(§3) Vancomycin was used as the standard/control.

The next data set relates to E.f820. As to the kind of experiment: Antibacterial screening (MIC) of compounds of Example 2, E.f820. Type of data set: cell-based, Enterrococci faecium. The settings on record: for Antibacterial activity μg/mL, E.f820: Example 2 compounds, fully vancomycin-resistant strain E.f820. The protocol:
as §1, §2, §3

For data set [1], the system named is Staphylococcus aureus strain ATCC 6538P. As to the kind of experiment: Antibacterial screening (MIC) of compounds of Example 2, S. aureus, Mueller-Hinton broth. Type of data set: cell-based. The settings on record: for MIC: Staphylococcus aureus, ATCC6538P. The procedure, abridged: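 Broth dilution against S. aureus ATCC 6538P in cation-supplemented Mueller-Hinton broth at 37 °C, with inoculated medium shaken 30 min at 130 rpm before serial transfer-dilution of compound. Triplicate vancomycin and compound-negative controls on each plate. MIC is the lowest concentration that prevents bacterial growth.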

The target in another data set is T1, HIV integrase enzyme (Human immunodeficiency virus type 1 group M subtype B, UniProt P04585).
T1 construct: against the HIV integrase enzyme
The experiment in a line: Cross testing of antibacterial compounds for ability to inhibit the HIV integrase enzyme. The following applies: Example 2 compounds; compared with lead 88. The data set is classed as biochemical. How it is done:
The results for the screening of the four target molecules 165-168 against the HIV integrase enzyme yielded some encouraging results which supported the proposed mechanism of binding in the active binding trench of the HIV integrase enzyme. The testing procedure for the four target compounds differed from the original screening protocols employed. The original screening measured inhibition against the 3′ processing function of the enzyme at the fixed concentration of 50 μg/mL, whereas the four target molecules were tested in an assay adapted from a literature procedure,^107 which measures inhibition against the 3′ strand transfer function of the enzyme. This allows a result to be obtained as an inhibition constant (IC50) concentration, which is the standard measurement of inhibition within the literature. Along with the four target molecules, 88 was also re-tested in the 3′ strand transfer assay to determine the IC50 for direct comparison with the literature.
After these compounds and the computer modelling studies had become established, all compounds that were sent for screening in the antibacterial assay were then also cross tested for their ability to inhibit the HIV integrase enzyme.

A further data set concerns E.f449. As to the kind of experiment: Antibacterial screening (MIC) of compounds of Example 2, E.f449. The data set is classed as cell-based, Enterococcus faecium. How it is done: as §1, §2, §3
The subject of the next data set is E.f987. The experiment in a line: Antibacterial screening (MIC) of compounds of Example 2, E.f987. The data set is classed as cell-based, Enterococcus faecium. The following applies: for Antibacterial activity μg/mL, E.f987: Example 2 compounds, enterococci strain E.f987.
Data set [2] deals with #449 E. faecium van B ST17. The experiment in a line: Antibacterial assay (MIC), VRE strain #449, Enterococossel Broth, Example 1. Type of data set: cell-based, Enterococcus faecium. The following applies: Enterococcus faecium, VRE, 24 h, read-out: 449 (minimum inhibitory concentration). In a few lines: (§4)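 Broth microdilution in Enterococossel Broth, triplicate twofold dilutions from 125 to 0.98 ug/ml, inoculated with 1/1000-diluted overnight E. faecium van B culture. Incubated 24 h at 37° C with slow rotation. MIC read as lowest concentration without pellet or black medium; first-row DMSO 2.5%.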

Data set [3] concerns #987 E. faecium van B ST39. The experiment in a line: Antibacterial assay (MIC), VRE strain #987, Enterococossel Broth, Example 1. The settings on record: Enterococcus faecium, VRE, 24 h, read-out: 987 (minimum inhibitory concentration). Type of data set: cell-based, Enterococcus faecium. The procedure, abridged:
(§5)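 Broth microdilution MIC vs E. faecium VRE strains grown in Enterococossel broth, inoculum 1/1000 of overnight culture; compounds tested in triplicate at 125–0.98 ug/ml (2-fold), top-well DMSO 2.5%. Plates incubated 24 h at 37 °C; MIC read as clear well, no pellet and no black colouring of medium.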

Data set [4] deals with #243 E. faecium van B ST17. The experiment in a line: Antibacterial assay (MIC), VRE strain #243, Enterococossel Broth, Example 1. The following applies: Enterococcus faecium, VRE, 24 h, read-out: 243 (minimum inhibitory concentration). The data set is classed as cell-based, Enterococcus faecium. In a few lines:
as §4

The test system of data set [5] is #820 E. faecium van A ST17. As to the kind of experiment: Antibacterial assay (MIC), VRE strain #820, Enterococossel Broth, Example 1. The following applies: Enterococcus faecium, VRE, 24 h, read-out: 820 (minimum inhibitory concentration). Type of data set: cell-based, Enterococcus faecium. In a few lines: as §5
Data set [6] concerns E. faecium (VRE, vanA genes). The following applies: typical for VRE E. faecium in hospitals; cited from earlier work.
A further data set has as its system MRSA isolates. The settings on record: 43 MRSA isolates from adults with community respiratory infections; cited from earlier work.
Data set [7] concerns Staphylococcus aureus (ATCC 6538P). As to the kind of experiment: Antibacterial assay (MIC), Staphylococcus aureus ATCC 6538P, Luria Broth, Example 1. The data set is classed as cell-based. The following applies: Staphylococcus aureus, ATCC6538P, 24 h, read-out: Sa (minimum inhibitory concentration). The procedure, abridged: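 Broth microdilution in Luria Broth, 2-fold series from 125 to 0.98 ug/ml in triplicate, with 1/1000-diluted overnight culture; up to 2.5% DMSO. Incubated 24 hrs at 37° C with slow rotation; MIC read as lowest concentration giving a clear well without bacterial pellet.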

The test system of data set [8] is strains of MRSA which have intermediate resistance to glycopeptides. The settings on record: cited from earlier work.
A further data set relates to S. aureus. The settings on record: when penicillin was introduced in mid-1940s; cited from earlier work.
In data set [9] the test system is E. faecium isolate (VanD-type). The following applies: VanD-type E. faecium isolate from the United States, constitutively resistant; cited from earlier work.

≈ marks a conversion by molar mass, not a printed value. Like-named read-outs stand apart in the source and are kept apart here.

`C=CCOc1ccc2ccccc2c1-c1c(OCC(=O)N[C@H](CCCNC(=N)N)C(=O)Nc2cccc(C(=O)NO)c2)ccc2ccccc12.Cl` returned a melting point of 158 to 160 °C.
Consider `CCCOc1ccc2ccccc2c1-c1c(OCC(=O)N[C@H](CCCN)C(=O)Nc2cccc(C(=O)NO)c2)ccc2ccccc12.Cl` [Compound 163], for which, in the data set on E.f243 (Example 2 compounds, enterococci strain E.f243), the “Antibacterial activity μg/mL, E.f243” value is over 125 µg/mL. In addition, the “Antibacterial activity μg/mL, E.f820” value in the data set with E.f820 is over 125 µg/mL. The “Antibacterial activity μg/mL, S.a” value in [1] (Example 2 compounds (linear cationic peptides), S. aureus, vancomycin-susceptible strain) was found to be 15.6 µg/mL. Also, at HIV integrase enzyme, the “ability to inhibit the HIV integrase enzyme (in words)” value was “almost as active as the original lead 88”. For the same compound, in the data set with E.f449 (Example 2 compounds, enterococci strain E.f449), the “Antibacterial activity μg/mL, E.f449” value was over 125 µg/mL. In the data set on E.f987, the “Antibacterial activity μg/mL, E.f987” value is over 125 µg/mL.
For the compound `CN[C@H](CC(C)C)C(=O)N[C@H]1C(=O)N[C@@H](CC(N)=O)C(=O)N[C@H]2C(=O)N[C@H]3C(=O)N[C@H](C(=O)N[C@H](C(=O)O)c4cc(O)cc(O)c4-c4cc3ccc4O)[C@H](O)c3ccc(c(Cl)c3)Oc3cc2cc(c3O[C@@H]2O[C@H](CO)[C@@H](O)[C@H](O)[C@H]2O[C@H]2C[C@](C)(N)[C@H](O)[C@H](C)O2)Oc2ccc(cc2Cl)[C@H]1O` [Vancomycin, vancomycin, reference compound], the MIC in the data set with E.f243 (Enterococcus faecium, read-out: Antibacterial activity μg/mL, E.f243) is 1.95 µg/mL (≈ 1.35 µM); in data set [2], 15.7 to 62.5 µg/mL (≈ 10.8 to 43.1 µM); in the data set on E.f820 (read-out: Antibacterial activity μg/mL, E.f820), over 125 µg/mL; in data set [3] it was under 0.98 µg/mL; in data set [4], under 0.98 µg/mL; in data set [1] (18 h, read-out: Antibacterial activity (MIC μg/mL)), 1.25 to 2.5 µg/mL (≈ 0.863 to 1.73 µM). In addition, the MIC in [1] (read-out: Antibacterial activity μg/mL, S.a) is 1.95 µg/mL (≈ 1.35 µM); in data set [5], over 62.6 µg/mL; in the data set on E.f449 (Enterococcus faecium, read-out: Antibacterial activity μg/mL, E.f449), 62.5 µg/mL (≈ 43.1 µM); in data set [7] it was 0.99 to 15.6 µg/mL (≈ 0.683 to 10.8 µM); with E.f987 (Enterococcus faecium, read-out: Antibacterial activity μg/mL, E.f987), under 0.98 µg/mL. Moreover, the “Antibacterial activity μg/mL, E.f820” value in the data set on E.f820 was over 125 µg/mL. In addition, the “minimum inhibitory concentrations (MICs)” value in data set [6] was over 128 µg/mL. The susceptibility rates in the data set on MRSA isolates is recorded as 100%. Besides, in the data set on E.f987, the “Antibacterial activity μg/mL, E.f987” value was under 0.98 µg/mL.
As for `Oc1cc(Cl)ccc1Oc1ccc(Cl)cc1Cl` [triclosan], the “minimal bactericidal concns. (MBCs), increased value” in [8] (MRSA with intermediate resistance to glycopeptides, decreased susceptibility to biocides) was 3.12 mg 1-1. Moreover, in data set [8] (value from which the MBC increased), the “minimal bactericidal concns. (MBCs), starting value” was 0.002 mg 1-1.
Regarding gentamicin, the susceptibility rates with MRSA isolates is 86%.
penicillin: in the data set with S. aureus, the “susceptible S. aureus” value is about 94%.
For the compound teicoplanin, the MIC in [9] is 4 µg/mL. Moreover, the “minimum inhibitory concentrations (MICs)” value in [6] was over 16 µg/mL.
